# In patent US20230293680A1, “A COMPOSITION OF ANTI-DR5 ANTIBODIES AND AN IMMUNOMODULATORY IMIDE DRUG FOR USE IN TREATING MULTIPLE MYELOMA” (Genmab B.V., priority 2020, published 2023):
# Where two headings read alike, the source gives them in different places.
# Experiments:
# NCI-H929 cells [1] = assay: viability of lenalidomide-preincubated NCI-H929 cells; type: cell-based, human; settings: NCI-H929 cells preincubated 5 days with 3 μM lenalidomide
# Experimental: FIG. 11: Percentage inhibition of viability of lenalidomide-preincubated NCI-H929 cells by HexaBody-DR5/DR5, lenalidomide and the combination thereof. […] Graphs show the mean and SD of duplicate measurements from a representative experiment (n=3).
# primary MM cells [2] = settings: 3 μM, 24 h viability assays on primary MM cells ex vivo
# A375 = assay: three-day viability assay (CellTiter-Glo); type: cell-based, human; settings: A375 melanoma, 3 days
# Experimental: (§1) COLO 205 cancer cells were harvested by pooling the culture supernatant containing non-adherent cells and trypsinized adherent cells. The other cell lines were harvested by trypsinization. For trypsinization, adherent cells were incubated with Trypsin-EDTA (Gibco, Cat no 15400-054) diluted in PBS (B.Braun; Cat no 3623140) to a final concentration of 0.05% Trypsin for 2 minutes at 37° C. and passed through a cell strainer. Cells were pelleted by centrifugation for 5 minutes at 1,200 rpm and resuspended at a concentration of 0.5x10^5 cells/mL in culture medium.
# (§2) 100 μL of single cell suspensions (5,000 cells per well) were seeded in polystyrene 96-well flat-bottom plates (Greiner Bio-One, Cat no 655180) and allowed to adhere overnight at 37° C. The following day, 50 μL antibody samples (0.002-133 nM final concentrations in 4-fold dilutions) were added to the adherent cells and incubated for 3 days at 37° C. As a positive control in all viability assays, cells were incubated with 5 μM staurosporine (Sigma Aldrich, Cat no S6942), and untreated cells were included as the negative control. The viability of the cultured cells was determined in a CellTiter-Glo Luminescent Cell Viability Assay (Promega, Cat no G7571) that quantifies the presence of ATP, which is an indicator of metabolically active cells. From the kit, 15 μL Luciferin Solution Reagent was added to each well of the viability assay plate. Next, plates were incubated for 1.5 hours at 37° C. 100 μL supernatant was transferred to a white OptiPlate-96 (Perkin Elmer, Cat no 6005299) and luminescence was measured on an EnVision Multilabel Reader (PerkinElmer). Data were analyzed and plotted using non-linear regression (sigmoidal dose-response with variable slope) using GraphPad Prism software. The percentage viable cells was calculated using the following formula: % viable cells=[(luminescence antibody sample−luminescence staurosporine sample)/(luminescence no antibody sample−luminescence staurosporine sample)]×100.
# BxPC-3 = assay: three-day viability assay (CellTiter-Glo); type: cell-based, human; settings: BxPC-3 pancreatic, 3 days
# Experimental: as §1, §2
# COLO 205 = assay: three-day viability assay (CellTiter-Glo); type: cell-based, human; settings: COLO 205 CRC, 3 days
# Experimental: as §1, §2
# HCT-15 = assay: three-day viability assay (CellTiter-Glo); type: cell-based, human; settings: HCT-15 CRC, 3 days
# Experimental: as §1, §2
# PANC-1 = assay: three-day viability assay (CellTiter-Glo); type: cell-based, human; settings: PANC-1 pancreatic, 3 days
# Experimental: as §1, §2
# SK-MES-1 = assay: three-day viability assay (CellTiter-Glo); type: cell-based, human; settings: SK-MES-1 NSCLC, 3 days
# Experimental: as §1, §2
# SNU-5 = assay: three-day viability assay (CellTiter-Glo); type: cell-based, human; settings: SNU-5 gastric, 3 days
# Experimental: as §1, §2
# human cancer cell lines = assay: viability assays in various human cancer cell lines (overall); type: cell-based
# Experimental: as §1, §2
# [3] = system: colorectal cancer PDX model CR0126; assay: in vivo anti-tumor activity, PDX model; design: species or system mice; settings: 2 mg/kg QWx2 IV; Mann-Whitney p<0.0379
# Experimental: (§3) Immunodeficient 8-13 weeks old female BALB/c athymic nude mice (Beijing HFK Bio-Technology Co. Ltd.) or nu/nu mice (Vital River Laboratories Research Models and Services) were inoculated subcutaneously at the right flank with one tumor fragment (2-3 mm diameter) derived from colorectal cancer PDX model CR0126 or CR3056 at CrownBio, Beijing, China. Earmarks were placed for mouse identification. Tumor volumes were measured at least twice per week using a digital caliper (PLEXX). Tumor volumes (mm^3) were calculated as follows: tumor volume=0.5×(length)×(width)^2. When the mean tumor size reached ˜200 mm^3, mice were divided into groups of 8 mice each, with equal tumor size distribution (average and variance). Mice were treated QW×2 by IV injection of 10 μL IgG1-DR5-01-G56T-E430G+IgG1-DR5-05-E430G per gram body weight: 0.2 mg/mL (2 mg/kg) or 0.05 mg/mL (0.5 mg/kg). For each model, statistical analysis was performed on the last day that all groups were intact.
# [4] = system: colorectal cancer PDX model CR3056; assay: in vivo anti-tumor activity, PDX model; design: species or system mice
# Experimental: as §3
# [5] = dose range finding study by intravenous infusion, plasma PK; type: in vivo, cynomolgus monkey; settings: 0.1, 0.5, 5 and 25 mg/kg IV
# CDX and PDX mouse models = assay: in vivo anti-tumor response in CDX and PDX mouse models (overall)
# Experimental: Therefore, the FIH starting dose of 0.3 mg/kg was considered to be in the lower end of a potential therapeutic dose-range in human patients.
# [6] = nonclinical immune agonism / cytokine release assessment
# primary MM cells [7] = assay: 24-hour ex vivo viability assay with BMNCs of MM patients, flow cytometry; type: cell-based, human; settings: 20 μg/mL
# NCI-H929 cells [8] = assay: cytotoxicity in NCI-H929 cells with healthy donor PBMCs; type: cell-based, human; settings: 20 μg/mL, 24 h, absence and presence of healthy donor PBMCs
# Experimental: FIG. 12: Inhibition of cell viability by HexaBody-DR5/DR5 in combination with lenalidomide on NCI-H929 cells in presence and absence of healthy donor peripheral blood mononuclear cells (PBMCs) in vitro. (A) Percentage kill of NCI-H929 cells by 20 μg/mL HexaBody-DR5/DR5 after a 24-hour incubation in the absence and presence of healthy donor PBMCs (n=6) in a 40:1 effector to target ratio. Mean and SD are shown. (ns) not significant (paired t-test). […] NCI-H929 cells were incubated with lenalidomide-exposed PBMCs and treated with lenalidomide and/or HexaBody-DR5/DR5 for an additional 24 h. Mean percentage kill and SD is shown. **p<0.005; ***p<0.0005 (paired t-test).
# To test possible indirect immunomodulatory effects of lenalidomide on HexaBody-DR5/DR5-mediated killing, PBMCs of healthy donors were preincubated with 3 μM lenalidomide for 5 days. Subsequently, NCI-H929 cells were incubated with 3 μM lenalidomide, lenalidomide-exposed PBMCs and/or 20 μg/mL HexaBody-DR5/DR5 for an additional 24 h.
# [9] = cynomolgus monkey, in vivo, iv
# [10] = single dose study by intravenous infusion, plasma PK (generic IgG ECLIA); settings: for Cmax / Tmax / Vd: group mean
# [11] = repeat-dose toxicity study, 5 weekly IV infusions (toxicokinetics, NOAEL/HNSTD)
# [12] = median over the seven cell lines with >40% max inhibition
# [13] = newly diagnosed (ND) patient samples
# [14] = relapsed and/or refractory (RR) patient samples
# [15] = 1QWx5 IV dosing, GLP toxicity study
compound,measurement,setting,value
Nc1cccc2c1CN(C1CCC(=O)NC1=O)C2=O (stereo not drawn) [lenalidomide],effect of preincubation on HexaBody-DR5/DR5-mediated kill,NCI-H929 cells [1],no direct effect
same,single agent activity,primary MM cells [2],no single agent activity
"HexaBody-DR5/DR5: 1:1 mixture of IgG1-hDR5-01-G56T-E430G and IgG1-hDR5-05-E430G, two non-competing humanized anti-human DR5 IgG1 antibodies",Average IC20,A375,0.067 µg/mL
same,IC20,A375,0.445 nM
same,Max inhibition %,A375,54.6%
same,Average IC20,BxPC-3,0.102 µg/mL
same,IC20,BxPC-3,0.677 nM
same,Max inhibition %,BxPC-3,89.4%
same,Average IC20,COLO 205,0.015 µg/mL
same,IC20,COLO 205,0.103 nM
same,Max inhibition %,COLO 205,99.6%
same,Average IC20,HCT-15,0.104 µg/mL
same,IC20,HCT-15,0.692 nM
same,Max inhibition %,HCT-15,66.7%
same,Average IC20,PANC-1,0.083 µg/mL
same,IC20,PANC-1,0.554 nM
same,Max inhibition %,PANC-1,61.0%
same,Average IC20,SK-MES-1,0.086 µg/mL
same,IC20,SK-MES-1,0.572 nM
same,Max inhibition %,SK-MES-1,76.6%
same,Average IC20,SNU-5,0.041 µg/mL
same,IC20,SNU-5,0.274 nM
same,Max inhibition %,SNU-5,44.7%
same,maximal inhibition of viability,human cancer cell lines; in seven of the twelve cell lines tested,more than 40%
same,IC20,human cancer cell lines; [12],0.554 nM
same,Overall Median IC20,human cancer cell lines; [12],0.083 µg/mL
same,tumor growth inhibition,[3],significant tumor growth inhibition
same,tumor growth inhibition,"[4]; 0.5 mg/kg QWx2 IV, Mann-Whitney p<0.0379",significant tumor growth inhibition
same,tumor growth inhibition,"[4]; 2 mg/kg QWx2 IV, Mann-Whitney p<0.0003",significant tumor growth inhibition
same,"increase in exposure with increasing dose, based on nCmax and nAUC0-∞",[5],proportional increase in exposure
same,target-mediated clearance (plasma concentration-time profiles),[5]; single or repeated dose,no indications of target-mediated clearance
same,In vivo anti-tumor response in CDX and PDX mouse models,CDX and PDX mouse models; dose giving full response,2 mg/kg
same,In vivo anti-tumor response in CDX and PDX mouse models,CDX and PDX mouse models; dose giving partial response,0.5 mg/kg
same,hazard of acute cytokine-releasing activity,[6],no hazard of acute cytokine-releasing activity has been identified
same,immune agonistic properties,[6],no immune agonistic properties
same,median lysis of MM cells,primary MM cells [7]; RR patients under treatment or last treatment shorter than 1 month before BM biopsy,62%
same,median lysis of MM cells,primary MM cells [7]; RR patients with last exposure to therapy >1 month before BM biopsy,23%
same,median lysis of MM cells,primary MM cells [7]; [13],19%
same,range of lysis of MM cells,primary MM cells [7]; [13],3-69%
same,median lysis of MM cells,primary MM cells [7]; [14],43%
same,range of lysis of MM cells,primary MM cells [7]; [14],0-86%
same,effect of FcγR-mediated crosslinking on cytotoxicity,NCI-H929 cells [8],did not increase
same,AUC0-∞ (μg · day/· mL^−1),[9]; 0.5 mg/kg,40.3 μg · day/· mL^−1
same,CL (mL · day^−1/· kg^−1),[9]; 0.5 mg/kg,12.6 mL · day^−1/· kg^−1
same,T1/2,[9]; 0.5 mg/kg,83.5 h
same,nCmax (μg · mL^−1/mg · kg^−1),[9]; 0.5 mg/kg,33.5 μg · mL^−1/mg · kg^−1
same,AUC0-∞ (μg · day/· mL^−1),[9]; 5 mg/kg,452.6 μg · day/· mL^−1
same,CL (mL · day^−1/· kg^−1),[9]; 5 mg/kg,11.4 mL · day^−1/· kg^−1
same,T1/2,[9]; 5 mg/kg,110 h
same,nCmax (μg · mL^−1/mg · kg^−1),[9]; 5 mg/kg,27.0 μg · mL^−1/mg · kg^−1
same,AUC0-∞ (μg · day/· mL^−1),[9]; 25 mg/kg,2748 μg · day/· mL^−1
same,CL (mL · day^−1/· kg^−1),[9]; 25 mg/kg,9.10 mL · day^−1/· kg^−1
same,T1/2,[9]; 25 mg/kg,166 h
same,nCmax (μg · mL^−1/mg · kg^−1),[9]; 25 mg/kg,18.8 μg · mL^−1/mg · kg^−1
same,Cmax,[10]; 0.5 mg/kg single IV,16.7 µg/mL
same,Tmax,[10]; 0.5 mg/kg single IV,1 h
same,Vd,[10]; 0.5 mg/kg single IV,0.0635 L/kg
same,Cmax,[10]; 5 mg/kg single IV,135.0 µg/mL
same,Tmax,[10]; 5 mg/kg single IV,1 h
same,Vd,[10]; 5 mg/kg single IV,0.0726 L/kg
same,Cmax,[10]; 25 mg/kg single IV,470.3 µg/mL
same,Tmax,[10]; 25 mg/kg single IV,3.36 h
same,Vd,[10]; 25 mg/kg single IV,0.091 L/kg
same,"increase in exposure with increasing dose, based on nAUC0-∞",[10]; 0.5 to 25 mg/kg,more or less proportional increase in exposure
same,"increase in exposure, based on nCmax",[10]; between 5 and 25 mg/kg,less than proportional increase in exposure
same,"increase in exposure, based on nCmax",[10]; up to a dose of 5 mg/kg,proportional increase in exposure
same,HNSTDcyno,[11]; [15],50 mg/kg
same,NOAELcyno,[11]; [15],50 mg/kg
same,MRSDhuman (=NOAELcyno/6),[11]; converted from cynomolgus NOAEL/HNSTD,8.3 mg/kg
